Source: publication PMC4579270, “Identification and Characterization of an Irreversible Inhibitor of CDK2” (Chemistry & Biology, 2015)

Assays:
Assay in all cases: Dundee protein kinase screen
Type in all cases: biochemical
IR = IR (Homo sapiens, UniProt P06213); details: read-out: %Remaining activity at 1µM NU6300
Method in brief: (§1)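 Selectivity panel of 131 protein kinases, inhibitor tested at a single concentration of 1 µM; values are % kinase activity remaining, mean of duplicates. Re-test of selected kinases used 0.5 µM in the standard format and again after a 4 hour pre-incubation with the inhibitor.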

JAK2 = JAK2 (Homo sapiens, UniProt O60674); details: JAK2, 1µM; read-out: %Remaining activity at 1µM NU6300
Method in brief: as §1

MINK1 = MINK1 (Homo sapiens, UniProt Q8N4C8); details: MINK1, 1µM; read-out: %Remaining activity at 1µM NU6300
Method in brief: as §1

PAK4 = PAK4 (Homo sapiens, UniProt O96013); details: PAK4, 1µM; read-out: %Remaining activity at 1µM NU6300
Method in brief: as §1

SIK3 = SIK3 (Homo sapiens, UniProt Q9Y2K2); details: SIK3, 1µM; read-out: %Remaining activity at 1µM NU6300
Method in brief: as §1

TAO1 = target: T1, TAO1 (Homo sapiens, UniProt Q7L7X3); details: TAO1, 1µM; read-out: %Remaining activity at 1µM NU6300
T1 sequence (Q7L7X3 1-1001): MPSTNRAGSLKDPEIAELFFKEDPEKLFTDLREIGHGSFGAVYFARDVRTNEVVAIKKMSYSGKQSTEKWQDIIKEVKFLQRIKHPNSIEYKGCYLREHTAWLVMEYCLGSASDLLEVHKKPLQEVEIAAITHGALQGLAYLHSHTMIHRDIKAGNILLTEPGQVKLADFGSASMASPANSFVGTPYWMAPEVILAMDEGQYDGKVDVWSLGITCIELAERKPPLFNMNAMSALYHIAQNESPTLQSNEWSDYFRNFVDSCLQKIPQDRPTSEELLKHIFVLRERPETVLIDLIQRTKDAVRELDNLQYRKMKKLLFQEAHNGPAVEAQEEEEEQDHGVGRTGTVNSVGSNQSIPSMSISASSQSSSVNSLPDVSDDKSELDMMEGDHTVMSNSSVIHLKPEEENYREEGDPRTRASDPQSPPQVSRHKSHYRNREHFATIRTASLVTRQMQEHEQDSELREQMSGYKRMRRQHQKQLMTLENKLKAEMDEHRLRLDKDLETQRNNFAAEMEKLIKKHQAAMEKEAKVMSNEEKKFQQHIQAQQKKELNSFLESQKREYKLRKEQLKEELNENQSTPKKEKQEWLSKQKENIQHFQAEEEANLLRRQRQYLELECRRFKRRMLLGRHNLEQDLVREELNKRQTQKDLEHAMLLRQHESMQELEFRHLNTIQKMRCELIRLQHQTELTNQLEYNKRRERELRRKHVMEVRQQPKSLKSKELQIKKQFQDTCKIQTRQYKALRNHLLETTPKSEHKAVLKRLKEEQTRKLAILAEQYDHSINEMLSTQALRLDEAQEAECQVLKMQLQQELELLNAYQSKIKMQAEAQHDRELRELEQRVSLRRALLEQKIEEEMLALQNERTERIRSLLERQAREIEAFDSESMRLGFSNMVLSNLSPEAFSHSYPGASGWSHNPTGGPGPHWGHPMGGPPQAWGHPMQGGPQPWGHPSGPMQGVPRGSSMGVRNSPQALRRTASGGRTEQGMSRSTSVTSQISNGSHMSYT
Method in brief: as §1

SIK3, sequence (Q9Y2K2 whole entry): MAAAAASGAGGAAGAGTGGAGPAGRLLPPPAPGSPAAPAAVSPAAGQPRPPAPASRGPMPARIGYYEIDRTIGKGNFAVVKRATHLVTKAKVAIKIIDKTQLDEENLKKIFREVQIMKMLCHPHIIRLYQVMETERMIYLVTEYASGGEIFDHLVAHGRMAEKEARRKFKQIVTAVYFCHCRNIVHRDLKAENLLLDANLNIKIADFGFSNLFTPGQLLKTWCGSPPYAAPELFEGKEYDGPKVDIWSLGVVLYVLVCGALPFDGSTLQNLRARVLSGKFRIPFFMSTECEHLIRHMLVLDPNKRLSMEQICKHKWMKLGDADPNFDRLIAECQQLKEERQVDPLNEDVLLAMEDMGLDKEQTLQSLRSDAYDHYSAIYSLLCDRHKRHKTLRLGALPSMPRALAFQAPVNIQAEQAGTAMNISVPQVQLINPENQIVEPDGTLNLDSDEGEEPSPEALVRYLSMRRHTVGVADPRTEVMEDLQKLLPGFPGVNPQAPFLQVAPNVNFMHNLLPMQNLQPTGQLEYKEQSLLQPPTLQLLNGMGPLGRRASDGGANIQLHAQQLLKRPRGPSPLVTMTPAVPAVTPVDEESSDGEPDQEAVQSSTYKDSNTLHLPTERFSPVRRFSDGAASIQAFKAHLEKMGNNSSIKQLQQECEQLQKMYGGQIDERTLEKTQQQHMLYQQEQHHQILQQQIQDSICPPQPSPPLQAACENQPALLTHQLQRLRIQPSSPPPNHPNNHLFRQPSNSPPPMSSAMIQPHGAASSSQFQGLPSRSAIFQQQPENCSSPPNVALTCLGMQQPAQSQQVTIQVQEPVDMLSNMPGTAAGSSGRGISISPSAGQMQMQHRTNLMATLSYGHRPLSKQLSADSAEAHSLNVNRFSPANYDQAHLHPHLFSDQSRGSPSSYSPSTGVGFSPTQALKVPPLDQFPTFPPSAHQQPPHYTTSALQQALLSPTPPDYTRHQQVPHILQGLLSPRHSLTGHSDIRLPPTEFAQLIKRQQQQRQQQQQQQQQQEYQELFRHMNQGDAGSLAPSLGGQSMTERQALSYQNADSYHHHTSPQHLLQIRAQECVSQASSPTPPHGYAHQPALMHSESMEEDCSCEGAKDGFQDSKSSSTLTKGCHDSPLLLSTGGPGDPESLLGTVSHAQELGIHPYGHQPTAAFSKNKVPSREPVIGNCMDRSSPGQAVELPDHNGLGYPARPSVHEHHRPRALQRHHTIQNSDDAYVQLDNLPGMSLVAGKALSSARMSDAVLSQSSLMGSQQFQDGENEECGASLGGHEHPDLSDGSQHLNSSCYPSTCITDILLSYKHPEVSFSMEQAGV
MINK1, sequence (Q8N4C8 whole entry): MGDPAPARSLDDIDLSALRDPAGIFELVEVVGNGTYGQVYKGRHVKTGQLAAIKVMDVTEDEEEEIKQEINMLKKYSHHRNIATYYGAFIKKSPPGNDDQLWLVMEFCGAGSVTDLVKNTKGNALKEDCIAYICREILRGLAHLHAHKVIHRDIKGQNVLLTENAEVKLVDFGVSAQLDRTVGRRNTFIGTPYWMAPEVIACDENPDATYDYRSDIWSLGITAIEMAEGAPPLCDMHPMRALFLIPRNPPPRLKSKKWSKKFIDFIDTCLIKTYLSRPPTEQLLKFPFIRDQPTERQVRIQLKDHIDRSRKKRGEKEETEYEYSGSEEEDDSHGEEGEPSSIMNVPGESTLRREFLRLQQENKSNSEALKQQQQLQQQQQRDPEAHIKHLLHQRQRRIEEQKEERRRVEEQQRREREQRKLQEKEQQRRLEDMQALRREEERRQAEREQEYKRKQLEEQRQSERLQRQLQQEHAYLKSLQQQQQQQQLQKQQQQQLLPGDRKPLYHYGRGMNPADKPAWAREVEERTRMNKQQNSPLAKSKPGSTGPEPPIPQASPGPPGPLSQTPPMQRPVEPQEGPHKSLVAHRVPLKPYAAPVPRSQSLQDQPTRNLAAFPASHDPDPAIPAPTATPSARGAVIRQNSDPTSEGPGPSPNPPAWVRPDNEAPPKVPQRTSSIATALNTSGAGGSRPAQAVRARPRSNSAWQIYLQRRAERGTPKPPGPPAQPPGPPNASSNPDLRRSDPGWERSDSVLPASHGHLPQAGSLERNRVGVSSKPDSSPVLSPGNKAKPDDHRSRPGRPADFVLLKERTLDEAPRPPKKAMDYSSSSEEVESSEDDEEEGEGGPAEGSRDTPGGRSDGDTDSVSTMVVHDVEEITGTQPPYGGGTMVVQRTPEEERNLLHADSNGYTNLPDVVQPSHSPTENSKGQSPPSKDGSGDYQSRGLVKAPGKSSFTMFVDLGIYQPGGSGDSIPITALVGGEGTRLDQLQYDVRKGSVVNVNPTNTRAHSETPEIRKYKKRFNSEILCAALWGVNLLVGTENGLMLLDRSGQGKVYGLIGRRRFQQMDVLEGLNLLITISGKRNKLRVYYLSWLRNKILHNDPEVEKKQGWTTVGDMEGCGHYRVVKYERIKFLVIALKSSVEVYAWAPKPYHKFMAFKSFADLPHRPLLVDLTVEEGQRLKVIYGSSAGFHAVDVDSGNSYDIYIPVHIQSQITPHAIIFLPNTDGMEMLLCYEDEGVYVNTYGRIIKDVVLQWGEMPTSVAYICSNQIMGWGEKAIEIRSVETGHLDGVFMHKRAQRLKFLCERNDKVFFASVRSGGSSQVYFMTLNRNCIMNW
JAK2, sequence (O60674 whole entry): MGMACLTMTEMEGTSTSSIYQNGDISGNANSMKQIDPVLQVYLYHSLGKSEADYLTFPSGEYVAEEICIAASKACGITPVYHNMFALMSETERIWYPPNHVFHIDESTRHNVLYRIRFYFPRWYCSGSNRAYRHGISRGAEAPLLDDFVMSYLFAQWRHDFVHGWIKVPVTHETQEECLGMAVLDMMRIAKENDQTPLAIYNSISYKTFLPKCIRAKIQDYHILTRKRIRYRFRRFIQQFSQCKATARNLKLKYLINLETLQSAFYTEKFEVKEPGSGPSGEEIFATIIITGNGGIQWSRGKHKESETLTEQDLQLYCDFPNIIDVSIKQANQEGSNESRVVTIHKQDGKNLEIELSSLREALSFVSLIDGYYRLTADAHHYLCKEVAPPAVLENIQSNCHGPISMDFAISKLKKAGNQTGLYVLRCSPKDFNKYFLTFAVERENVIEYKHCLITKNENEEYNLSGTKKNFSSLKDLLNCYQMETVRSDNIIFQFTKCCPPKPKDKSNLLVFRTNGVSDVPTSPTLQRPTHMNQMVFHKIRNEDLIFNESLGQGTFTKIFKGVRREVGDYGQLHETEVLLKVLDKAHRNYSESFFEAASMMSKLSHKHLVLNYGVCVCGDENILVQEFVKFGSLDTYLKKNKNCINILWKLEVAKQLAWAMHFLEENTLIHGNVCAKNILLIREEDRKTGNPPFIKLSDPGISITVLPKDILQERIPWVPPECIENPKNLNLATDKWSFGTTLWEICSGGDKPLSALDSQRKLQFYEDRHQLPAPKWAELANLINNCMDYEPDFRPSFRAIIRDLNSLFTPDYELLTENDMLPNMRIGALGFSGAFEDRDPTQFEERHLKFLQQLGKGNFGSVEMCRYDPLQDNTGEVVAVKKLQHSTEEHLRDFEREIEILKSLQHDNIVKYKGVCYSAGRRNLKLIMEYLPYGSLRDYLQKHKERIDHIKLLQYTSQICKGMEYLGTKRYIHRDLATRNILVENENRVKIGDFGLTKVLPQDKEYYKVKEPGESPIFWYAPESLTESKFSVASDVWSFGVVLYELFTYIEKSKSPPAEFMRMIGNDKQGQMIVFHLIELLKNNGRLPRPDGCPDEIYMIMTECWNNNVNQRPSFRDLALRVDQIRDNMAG
PAK4, sequence (O96013 whole entry): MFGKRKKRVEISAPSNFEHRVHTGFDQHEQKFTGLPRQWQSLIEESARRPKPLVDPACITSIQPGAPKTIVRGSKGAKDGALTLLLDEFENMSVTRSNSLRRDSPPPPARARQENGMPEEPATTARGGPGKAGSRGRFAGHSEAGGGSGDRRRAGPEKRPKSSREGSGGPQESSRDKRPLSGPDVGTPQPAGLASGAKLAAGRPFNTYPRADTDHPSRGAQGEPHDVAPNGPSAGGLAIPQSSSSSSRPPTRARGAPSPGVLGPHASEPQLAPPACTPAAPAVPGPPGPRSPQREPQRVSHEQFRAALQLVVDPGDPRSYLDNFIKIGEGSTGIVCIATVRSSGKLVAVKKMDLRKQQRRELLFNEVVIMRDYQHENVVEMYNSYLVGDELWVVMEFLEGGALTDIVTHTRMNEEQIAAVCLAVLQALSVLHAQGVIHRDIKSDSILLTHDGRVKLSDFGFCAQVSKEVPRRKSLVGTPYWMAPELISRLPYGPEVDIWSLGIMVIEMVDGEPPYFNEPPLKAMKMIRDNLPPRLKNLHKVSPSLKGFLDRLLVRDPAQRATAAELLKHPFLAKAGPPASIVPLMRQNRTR

`C=CS(=O)(=O)c1ccc(Nc2nc(OCC3CCCCC3)c3nc[nH]c3n2)cc1` [NU6300, 6-(cyclohexylmethoxy)-N-(4-(vinylsulfonyl)phenyl)-9H-purin-2-amine] gave a remaining activity at 1 µM (IR) of 32%, a remaining activity at 1 µM (JAK2) of 5% and a remaining activity at 1 µM (MINK1) of 69%. The remaining activity at 1 µM (PAK4) was 35%, the remaining activity at 1 µM (SIK3) was 76% and the remaining activity at 1 µM (TAO1) was 27%.
